From patent publication US9050341B2, “Methods of treating drug resistant and other tumors by administering 6,7-dialkoxy quinazoline derivatives” (NATCO PHARMA LIMITED, priority 2009, dated 2015)

Experiments:
Experiment in all cases: KinomeScan kinase profiling
Assay type in all cases: binding
[1] = target: T1, EPHB2 (Homo sapiens, UniProt P29323)
T1 construct: host or cells: E. coli host derived from BL21, T7 phage lysate
How it was run: (§1)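 Kinases were expressed as T7 phage fusions in a BL21-derived E. coli host and the cleared lysates were used. Ligand beads were blocked with biotin and buffer (1% BSA, 0.05% Tween 20, 1 mM DTT). Compounds came from 40× DMSO stocks, and phage in the eluates was titred by qPCR.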

[2] = target: T2, PIK3CG (Homo sapiens, UniProt P48736)
T2 construct: purchased Ambit Biosciences Corp (KinomeScan); host or cells: E. coli host derived from BL21, infected with T7 phage
T2 sequence (P48736 whole entry): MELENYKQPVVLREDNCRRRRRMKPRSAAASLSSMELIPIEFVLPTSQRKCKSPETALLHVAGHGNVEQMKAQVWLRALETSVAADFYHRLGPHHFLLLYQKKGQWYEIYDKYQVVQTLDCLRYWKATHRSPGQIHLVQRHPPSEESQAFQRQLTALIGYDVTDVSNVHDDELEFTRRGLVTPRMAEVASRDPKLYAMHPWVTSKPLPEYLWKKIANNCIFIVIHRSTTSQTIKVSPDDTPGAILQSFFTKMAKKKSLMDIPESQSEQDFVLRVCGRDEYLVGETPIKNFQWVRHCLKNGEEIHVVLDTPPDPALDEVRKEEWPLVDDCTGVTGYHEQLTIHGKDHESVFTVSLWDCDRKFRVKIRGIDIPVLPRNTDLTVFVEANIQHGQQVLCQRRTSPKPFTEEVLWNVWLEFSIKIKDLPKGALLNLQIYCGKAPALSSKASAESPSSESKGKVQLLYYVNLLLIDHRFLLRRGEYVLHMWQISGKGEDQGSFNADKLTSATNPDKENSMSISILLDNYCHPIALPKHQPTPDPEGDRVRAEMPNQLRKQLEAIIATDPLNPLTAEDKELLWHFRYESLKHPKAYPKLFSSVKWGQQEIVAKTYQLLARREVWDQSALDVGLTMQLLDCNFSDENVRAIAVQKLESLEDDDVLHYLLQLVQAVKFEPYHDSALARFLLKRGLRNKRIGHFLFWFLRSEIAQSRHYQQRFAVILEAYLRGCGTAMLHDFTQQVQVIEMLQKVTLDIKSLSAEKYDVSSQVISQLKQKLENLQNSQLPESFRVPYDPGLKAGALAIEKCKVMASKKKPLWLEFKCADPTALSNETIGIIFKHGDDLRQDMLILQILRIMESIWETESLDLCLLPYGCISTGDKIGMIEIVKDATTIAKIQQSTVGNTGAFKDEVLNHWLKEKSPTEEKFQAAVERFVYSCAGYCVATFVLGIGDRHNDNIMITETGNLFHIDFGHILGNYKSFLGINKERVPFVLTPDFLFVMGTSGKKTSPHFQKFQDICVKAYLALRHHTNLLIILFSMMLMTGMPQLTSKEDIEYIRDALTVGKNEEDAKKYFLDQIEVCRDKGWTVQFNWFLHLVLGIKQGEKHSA
How it was run: as §1

[3] = target: T3, EPHA3 (Homo sapiens, UniProt P29320)
T3 construct: host or cells: E. coli host derived from BL21, T7 phage lysate
T3 sequence (P29320 21-983): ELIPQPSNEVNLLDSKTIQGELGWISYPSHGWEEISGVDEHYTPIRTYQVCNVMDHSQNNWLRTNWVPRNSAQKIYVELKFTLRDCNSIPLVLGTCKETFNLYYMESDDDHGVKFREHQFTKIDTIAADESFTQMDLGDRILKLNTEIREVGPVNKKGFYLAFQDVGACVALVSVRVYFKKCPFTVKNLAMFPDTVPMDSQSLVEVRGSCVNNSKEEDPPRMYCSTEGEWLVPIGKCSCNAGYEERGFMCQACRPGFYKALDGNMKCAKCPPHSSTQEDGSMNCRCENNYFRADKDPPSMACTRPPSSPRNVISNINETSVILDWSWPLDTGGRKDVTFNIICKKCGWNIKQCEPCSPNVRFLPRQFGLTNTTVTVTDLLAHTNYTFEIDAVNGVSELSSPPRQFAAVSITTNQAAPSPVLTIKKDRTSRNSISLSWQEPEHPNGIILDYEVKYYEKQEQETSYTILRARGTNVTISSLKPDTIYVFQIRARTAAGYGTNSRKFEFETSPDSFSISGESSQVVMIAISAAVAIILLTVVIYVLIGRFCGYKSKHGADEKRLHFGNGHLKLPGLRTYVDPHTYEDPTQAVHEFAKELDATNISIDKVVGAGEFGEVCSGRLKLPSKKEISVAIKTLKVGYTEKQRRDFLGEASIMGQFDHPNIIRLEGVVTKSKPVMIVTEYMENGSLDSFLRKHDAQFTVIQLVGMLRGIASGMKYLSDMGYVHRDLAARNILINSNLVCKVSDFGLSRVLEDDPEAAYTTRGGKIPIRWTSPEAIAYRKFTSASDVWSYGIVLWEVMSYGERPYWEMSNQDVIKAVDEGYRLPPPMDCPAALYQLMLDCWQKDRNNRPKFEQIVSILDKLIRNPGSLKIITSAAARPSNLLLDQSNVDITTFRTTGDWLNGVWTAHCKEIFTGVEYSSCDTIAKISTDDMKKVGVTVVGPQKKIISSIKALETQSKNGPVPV
How it was run: as §1

[4] = target: T4, KIT (Homo sapiens, UniProt P10721)
T4 construct: host or cells: T7 phage in E. coli host derived from BL21
How it was run: as §1

[5] = target: T5, CAMK4 (Homo sapiens, UniProt Q16566)
T5 construct: host or cells: T7 phage in E. coli (BL21-derived)
How it was run: as §1

[6] = target: T6, NLK (Homo sapiens, UniProt Q9UBE8)
T6 construct: host or cells: E. coli host derived from the BL21 strain, infected with T7 phage
How it was run: as §1

[7] = target: T7, PLK4 (Homo sapiens, UniProt O00444)
T7 construct: purchased Ambit Biosciences Corp (KinomeScan); host or cells: E. coli host derived from BL21, infected with T7 phage
How it was run: as §1

[8] = target: T8, MLK1 (Homo sapiens, UniProt P80192)
T8 construct: host or cells: T7 phage in E. coli host derived from BL21
How it was run: as §1

[9] = target: T9, RPS6KA6 (Kin.Dom.-1-N-terminal) (Homo sapiens, UniProt Q9UK32)
T9 construct: RPS6KA6 (Kin.Dom.-1-N-terminal); host or cells: E. coli host derived from BL21, T7 phage lysate
T9 sequence (Q9UK32 73-330 limits assumed): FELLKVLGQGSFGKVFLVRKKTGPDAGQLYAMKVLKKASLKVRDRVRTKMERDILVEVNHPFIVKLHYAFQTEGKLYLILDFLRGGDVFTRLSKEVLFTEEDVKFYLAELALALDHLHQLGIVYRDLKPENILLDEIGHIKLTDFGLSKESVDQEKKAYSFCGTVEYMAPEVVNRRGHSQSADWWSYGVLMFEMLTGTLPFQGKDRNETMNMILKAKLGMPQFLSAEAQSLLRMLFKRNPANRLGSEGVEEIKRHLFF
How it was run: as §1

[10] = target: T10, AKT3 (Homo sapiens, UniProt Q9Y243)
T10 construct: host or cells: E. coli host derived from BL21 (T7 phage lysate)
How it was run: as §1

[11] = target: T11, CLK3 (Homo sapiens, UniProt P49761)
T11 construct: host or cells: T7 phage in E. coli (BL21-derived)
How it was run: as §1

[12] = target: T12, EPHB4 (Homo sapiens, UniProt P54760)
T12 construct: host or cells: E. coli host derived from BL21, T7 phage lysate
T12 sequence (P54760 16-987): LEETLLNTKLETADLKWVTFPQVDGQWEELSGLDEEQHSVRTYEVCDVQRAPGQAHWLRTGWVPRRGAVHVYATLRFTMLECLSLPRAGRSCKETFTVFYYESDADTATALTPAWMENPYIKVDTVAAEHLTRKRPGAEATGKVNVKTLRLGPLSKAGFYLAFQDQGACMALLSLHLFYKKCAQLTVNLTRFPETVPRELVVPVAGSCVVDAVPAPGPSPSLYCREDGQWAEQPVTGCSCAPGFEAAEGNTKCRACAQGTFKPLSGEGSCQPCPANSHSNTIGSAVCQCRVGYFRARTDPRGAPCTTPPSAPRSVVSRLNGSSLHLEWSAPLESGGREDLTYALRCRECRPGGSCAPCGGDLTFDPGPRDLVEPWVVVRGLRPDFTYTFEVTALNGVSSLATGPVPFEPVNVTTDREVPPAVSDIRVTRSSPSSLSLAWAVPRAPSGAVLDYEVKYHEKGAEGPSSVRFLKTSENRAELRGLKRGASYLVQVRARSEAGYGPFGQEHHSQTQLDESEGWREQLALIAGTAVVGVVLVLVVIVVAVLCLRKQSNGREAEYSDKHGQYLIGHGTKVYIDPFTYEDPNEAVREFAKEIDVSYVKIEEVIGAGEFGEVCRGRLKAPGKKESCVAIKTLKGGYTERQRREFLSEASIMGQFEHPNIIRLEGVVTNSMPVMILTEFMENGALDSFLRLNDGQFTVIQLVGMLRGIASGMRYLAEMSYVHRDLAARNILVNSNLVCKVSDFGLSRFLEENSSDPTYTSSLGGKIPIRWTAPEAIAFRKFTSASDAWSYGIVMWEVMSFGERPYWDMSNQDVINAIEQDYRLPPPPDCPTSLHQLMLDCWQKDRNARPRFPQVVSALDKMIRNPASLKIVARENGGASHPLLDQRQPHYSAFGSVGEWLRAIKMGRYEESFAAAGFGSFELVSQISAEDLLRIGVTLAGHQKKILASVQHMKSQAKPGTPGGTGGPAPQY
How it was run: as §1

[13] = target: T13, PRKG1 (Homo sapiens, UniProt Q13976)
T13 construct: purchased Ambit Biosciences Corp (KinomeScan); host or cells: E. coli host derived from BL21, infected with T7 phage
T13 sequence (Q13976 whole entry): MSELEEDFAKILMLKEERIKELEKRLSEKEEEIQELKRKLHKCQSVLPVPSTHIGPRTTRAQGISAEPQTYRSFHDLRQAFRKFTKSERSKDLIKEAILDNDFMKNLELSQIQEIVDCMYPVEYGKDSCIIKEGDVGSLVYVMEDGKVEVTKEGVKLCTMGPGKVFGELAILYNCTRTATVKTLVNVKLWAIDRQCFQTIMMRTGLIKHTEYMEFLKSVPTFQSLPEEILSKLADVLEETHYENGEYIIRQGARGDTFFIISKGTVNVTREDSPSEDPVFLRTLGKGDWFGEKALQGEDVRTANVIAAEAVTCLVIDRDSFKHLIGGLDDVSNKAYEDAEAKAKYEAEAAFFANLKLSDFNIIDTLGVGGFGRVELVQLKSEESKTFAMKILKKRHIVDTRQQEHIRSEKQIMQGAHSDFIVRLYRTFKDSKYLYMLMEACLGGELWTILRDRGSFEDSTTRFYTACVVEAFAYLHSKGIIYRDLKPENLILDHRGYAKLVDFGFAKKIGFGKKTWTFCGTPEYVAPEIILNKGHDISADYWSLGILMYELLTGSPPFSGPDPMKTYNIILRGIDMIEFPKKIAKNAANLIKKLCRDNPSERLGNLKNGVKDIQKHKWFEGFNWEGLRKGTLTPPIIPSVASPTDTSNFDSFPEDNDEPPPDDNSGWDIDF
How it was run: as §1

[14] = target: T14, ERK4 (Homo sapiens, UniProt P31152)
T14 construct: host or cells: E. coli host derived from BL21, T7 phage lysate
How it was run: as §1

[15] = target: T15, PAK3 (Homo sapiens, UniProt O75914)
T15 construct: host or cells: E. coli host derived from the BL21 strain, infected with T7 phage
T15 sequence (O75914 whole entry): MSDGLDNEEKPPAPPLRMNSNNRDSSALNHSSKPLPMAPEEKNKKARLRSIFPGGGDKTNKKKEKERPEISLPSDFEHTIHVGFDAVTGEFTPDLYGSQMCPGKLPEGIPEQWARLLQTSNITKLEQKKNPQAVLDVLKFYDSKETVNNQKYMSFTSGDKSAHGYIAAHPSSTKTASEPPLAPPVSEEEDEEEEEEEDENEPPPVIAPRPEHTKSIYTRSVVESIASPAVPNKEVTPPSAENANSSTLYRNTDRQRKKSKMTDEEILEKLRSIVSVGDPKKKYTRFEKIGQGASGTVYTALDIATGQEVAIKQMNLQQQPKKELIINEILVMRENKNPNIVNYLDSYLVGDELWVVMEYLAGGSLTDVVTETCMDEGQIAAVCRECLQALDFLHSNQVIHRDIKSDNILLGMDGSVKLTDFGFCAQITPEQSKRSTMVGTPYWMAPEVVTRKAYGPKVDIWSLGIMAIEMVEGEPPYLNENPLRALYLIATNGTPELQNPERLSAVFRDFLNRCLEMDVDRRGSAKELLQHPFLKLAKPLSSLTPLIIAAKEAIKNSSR
How it was run: as §1

[16] = target: T16, ADCK3 (Homo sapiens, UniProt Q8NI60)
T16 construct: host or cells: E. coli host derived from BL21 (T7 phage lysate)
T16 sequence (Q8NI60 163-647): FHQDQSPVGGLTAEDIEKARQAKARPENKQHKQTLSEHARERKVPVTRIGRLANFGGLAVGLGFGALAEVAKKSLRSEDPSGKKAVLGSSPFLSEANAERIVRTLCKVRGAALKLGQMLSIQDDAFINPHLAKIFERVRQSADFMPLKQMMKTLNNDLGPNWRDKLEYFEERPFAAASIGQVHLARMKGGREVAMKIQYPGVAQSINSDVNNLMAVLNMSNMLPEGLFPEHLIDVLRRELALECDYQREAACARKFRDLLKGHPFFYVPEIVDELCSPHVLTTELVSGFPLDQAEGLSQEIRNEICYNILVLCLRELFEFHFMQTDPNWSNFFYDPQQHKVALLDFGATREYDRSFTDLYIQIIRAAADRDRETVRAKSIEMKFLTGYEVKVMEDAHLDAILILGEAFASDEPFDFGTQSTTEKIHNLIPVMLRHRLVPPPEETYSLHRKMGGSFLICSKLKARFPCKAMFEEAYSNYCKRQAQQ
How it was run: as §1

[17] = target: T17, RPS6KA4 (Kin.Dom.-1-N-terminal) (Homo sapiens, UniProt O75676)
T17 construct: RPS6KA4 (Kin.Dom.-1-N-terminal); host or cells: E. coli host derived from BL21, T7 phage lysate
How it was run: as §1

[18] = target: T18, PAK7 (Homo sapiens, UniProt Q9P286)
T18 construct: host or cells: E. coli host derived from the BL21 strain, infected with T7 phage
How it was run: as §1

[19] = target: T19, EPHA5 (Homo sapiens, UniProt P54756)
T19 construct: host or cells: E. coli host derived from BL21, T7 phage lysate
How it was run: as §1

[20] = target: T20, DDR1 (Homo sapiens, UniProt Q08345)
T20 construct: purchased Ambit Biosciences Corp (KinomeScan); host or cells: T7 phage in E. coli host derived from BL21
How it was run: as §1

[21] = target: T21, BRSK2 (Homo sapiens, UniProt Q8IWQ3)
T21 construct: purchased Ambit Biosciences Corp (KinomeScan); host or cells: E. coli host derived from the BL21 strain, T7 phage
How it was run: as §1

[22] = target: T22, BRK (Homo sapiens, UniProt Q13882)
T22 construct: purchased Ambit Biosciences Corp (KinomeScan); host or cells: E. coli host derived from the BL21 strain, T7 phage
How it was run: as §1

[23] = target: T23, BMPR2 (Homo sapiens, UniProt Q13873)
T23 construct: purchased Ambit Biosciences Corp (KinomeScan); host or cells: E. coli host derived from the BL21 strain, T7 phage
How it was run: as §1

C#Cc1cccc(Nc2ncnc3cc(OC)c(OCCCN4CCOCC4)cc23)c1 [NRC-2694, N-(3-ethylnylphenyl)-7-methoxy-6-[3-(4-morpholinyl)propoxy]-4-quinazolinamine]
% Ctrl @ 10000 nM [1]: 83 % Ctrl | % Ctrl @ 10000 nM [2]: 78 % Ctrl | % Ctrl @ 10000 nM [3]: 56 % Ctrl | % Ctrl @ 10000 nM [4]: 26 % Ctrl | % Ctrl @ 10000 nM [5]: 92 % Ctrl | % Ctrl @ 10000 nM [6]: 55 % Ctrl | % Ctrl @ 10000 nM [7]: 70 % Ctrl | % Ctrl @ 10000 nM [8]: 100 % Ctrl | % Ctrl @ 10000 nM [9]: 94 % Ctrl | % Ctrl @ 10000 nM [10]: 66 % Ctrl | % Ctrl @ 10000 nM [11]: 45 % Ctrl | % Ctrl @ 10000 nM [12]: 39 % Ctrl | % Ctrl @ 10000 nM [13]: 75 % Ctrl | % Ctrl @ 10000 nM [14]: 3.7 % Ctrl | % Ctrl @ 10000 nM [15]: 55 % Ctrl | % Ctrl @ 10000 nM [16]: 14 % Ctrl | % Ctrl @ 10000 nM [17]: 84 % Ctrl | % Ctrl @ 10000 nM [18]: 63 % Ctrl | % Ctrl @ 10000 nM [19]: 86 % Ctrl | % Ctrl @ 10000 nM [20]: 39 % Ctrl | % Ctrl @ 10000 nM [21]: 33 % Ctrl | % Ctrl @ 10000 nM [22]: 46 % Ctrl | % Ctrl @ 10000 nM [23]: 100 % Ctrl
